Converted amounts (≈) assume the structure as drawn.
What was measured:
[1] = Solubility of esters in oils (solvent added in increments until a room temperature solubility is obtained); type: physicochemical; settings: for Solubility Limit / solubility: castor oil, room temperature; for solubility: oil or lipid, thermodynamic from solid, read-out: Solubility Limit
Protocol: About 150 mg samples of each drug substance in Table are placed in about 300 mg of a test solvent in a test tube. The samples are swirled and gently heated with a warm water bath. Additional solvent is added in about 100 mg increments until solubility is reached. The samples are cooled overnight and if precipitation is observed, then more solvent is again added in portions until a room temperature solubility is obtained. […] Ganaxolone enanthate is a liquid and appeared miscible in the oils tested.

[2] = system: migraine; settings: phase 2 clinical trial for migraine; cited from earlier work
[3] = post-oral administration; cited from earlier work

Compound	Miscibility in the oils tested ([1]; oils tested, substance is a liquid)	Solubility Limit [1]	solubility [1]	benefit on time to pain relief [2]	drug recovered in feces [3]
CCCCCCC(=O)OC1(C)CCC2(C)C(CCC3C2CCC2(C)C(C(C)=O)CCC32)C1 (stereo not shown) [Ganaxalone Enanthate]	miscible				
CC(=O)[C@H]1CC[C@H]2[C@@H]3CC[C@H]4C[C@H](O)CC[C@]4(C)[C@H]3CC[C@]12C [Allopregnanolone, 5α-pregnan-3α-ol-20-one]		< 1 % w/w	< 10000 µg/mL		
CC(=O)[C@H]1CC[C@H]2[C@@H]3CC[C@H]4C[C@](C)(O)CC[C@]4(C)[C@H]3CC[C@]12C [Ganaxalone, 3a-hydroxy-3-methyl-5a-pregnan-20-one]		~1 % w/w	~10000 µg/mL (≈ 30.1 mM)	failed to show benefit	~80%

Source: patent publication US20210363173A1, “NEUROSTERIOD DERIVATIVES AND USES THEREOF” (ACERUS BIOPHARMA INC., priority 2018, published 2021)
